Laboratory results from patent publication US20120010072A1 (priority 2009, published 2012).
Where two headings read alike, the source gives them in different places.

Legend:
Phytophthora infestans = assay type: cell-based; conditions: 405 nm, 7 days after inoculation, 18° C.
Septoria tritici = conditions: 0.004 ppm; 405 nm, 7 days after inoculation, 18° C.
[1] = system: Sugar beet seeds (Beretta); assay: Safener effect of dimethomorph: germination of pelleted sugar beet seeds under cold stress; assay type: in vivo; conditions: 30 g a.i./U seed pelleting; % of sown seeds; 6 days 13° C. then 5° C.; all seeds also treated with 6 g/U thiram and 14.7 g/U hymexazole
Description: Sugar beet seeds (Beretta) were pelleted either with pyraclostrobin alone or with pyraclostrobin in combination with dimethomorph. After sowing, the seeds (200 seeds per treatment, 4 repetitions) were grown for 6 days at 13° C. and then exposed to 5° C. for 7 days. Cultivation was then continued at 20° C. During the whole cultivation period the soil was kept at 20% humidity. 7 and 8 days after sowing (DAS) germination was assessed as % of the number of sown seeds.

Question: For `COc1ccc(C(=CC(=O)N2CCOCC2)c2ccc(Cl)cc2)cc1OC` [Dimethomorph], which Observed efficacy (Phytophthora infestans; 0.25 ppm) is on record?
Answer: 51%

Question: For `COC(=O)N(OC)c1ccccc1COc1ccn(-c2ccc(Cl)cc2)n1` [Pyraclostrobin], which Observed efficacy (Septoria tritici) is on record?
Answer: 49%

Question: What about the “Germination 7 DAS” value [1] of the same compound?
Answer: 16%

Question: What about the “Germination 8 DAS” value [1] of the same compound?
Answer: 27%

Question: `C/C(=N\C#N)N(C)Cc1ccc(Cl)nc1` [Acetamiprid] was tested. Which Observed efficacy (Phytophthora infestans; 0.25 ppm) did it give?
Answer: 0%

Question: `CC(C)C1CCC(Cc2ccc(Cl)cc2)C1(O)Cn1cncn1` (stereo not drawn) [Ipconazol] was tested. Which Observed efficacy (Phytophthora infestans; 0.063 ppm) did it give?
Answer: 2%
